Consider two compounds from paper PMC5154303, “Flavonol and imidazole derivatives block HPV16 E6 activities and reactivate apoptotic pathways in HPV^+ cells” (Cell Death & Disease, 2016).

What all share (format): cell-based, human
For data set [1], the system named is UMSCC47. Put plainly: TRAIL-induced cell death in HPV+ HNSCC line UMSCC47 (MTT). To be noted: HPV+ #47, 40 μM compound 4 h, 50 ng/ml TRAIL + cycloheximide. The protocol: (§1) Figure 7 Myricetin and spinacine (5) can re-sensitize HPV^+, but not HPV^−, head and neck cancer cell lines to treatment with TRAIL. (a) Both HPV^− and HPV^+ HN cancer cell lines display resistance to TRAIL treatment. (b) HPV^− (UMSCC 29 and SCC 84) and (c) HPV^+ (UMSCC 47, UPCI-SCC90-UP-Clone 35, and UM-SCC47-TC-Clone 3) head and neck cancer cell lines (2 × 10^4 cells per well) were seeded into 96-well plates and allowed to incubate overnight, and then cells were pretreated with myricetin (0–200 μM) or spinacine (0–100 μM) for 4 h. […] Cell viability was measured by the MTT assay, and the viability of cells untreated with small molecules was set at 100%. Experiments were performed in triplicate, and error bars indicate the S.D.
(§2) The extracellular domain of human TRAIL was cloned into a pTriEx expression plasmid containing N-terminal Hisx6 tag. His-TRAIL was expressed in the E. coli BL-21 pLys strain and purified as previously described. Doxorubicin and cisplatin were purchased from Sigma. His-TRAIL, doxorubicin, and cisplatin were diluted in PBS to the desired concentration before using. […] All experiments were repeated at least three times (three biological replicates, carried out on different days), with each experimental group measured in triplicate within each of these individual experiments. […]

Data set [2] has as its system SiHa cells. Kind of data set: Sensitization of SiHa cells to doxorubicin (MTT). To be noted: 100 μM myricetin or 50 μM spinacine 4 h prior to doxorubicin, versus negative control. The protocol:
(§3) Figure 3 (a) HPV^+ SiHa cells are resistant to TRAIL-induced apoptosis as compared with the human osteosarcoma cell line U2OS. Cells (2 × 10^4 cells per well) were seeded into a 96-well plate, allowed to incubate overnight, and then treated with the indicated concentration of TRAIL in the presence of cycloheximide (5 μg/ml). The viability of cells was measured after overnight incubation using the MTT assay; the viability of cells untreated with TRAIL was set at 100% for each group. (b) The indicated concentrations of three small molecules were added to SiHa cells, and an MTT assay was preformed after overnight incubation. The viability of cells untreated with small molecules was set as 100%. (c) The indicated concentrations of myricetin or spinacine were added 4 h prior to TRAIL (100 ng/ml) in the presence of cycloheximide (5 μg/ml) and incubated at 37 °C overnight. […] Cell viability was measured after overnight incubation using the MTT assay, and the viability of cells untreated with either myricetin or spinacine was set at 100%. […]
(§4) The extracellular domain of human TRAIL was cloned into a pTriEx expression plasmid containing N-terminal Hisx6 tag. […] All experiments were repeated at least three times (three biological replicates, carried out on different days), with each experimental group measured in triplicate within each of these individual experiments. […]

The test system of data set [3] is SiHa cells. Put plainly: Cell toxicity in SiHa cells without TRAIL (MTT). To be noted: overnight. Here is the method:
as §3, §4

Data set [4] concerns UMSCC29. Kind of data set: TRAIL-induced cell death in HPV− HNSCC line UMSCC29 (MTT). To be noted: HPV− #29, myricetin 0–200 μM or spinacine 0–100 μM, 50 ng/ml TRAIL. The protocol: as §1, §2
For data set [5], the system named is UM-SCC47-TC-Clone 3. Put plainly: TRAIL-induced cell death in HPV+ HNSCC line UM-SCC47-TC-Clone 3 (MTT). To be noted: HPV+ 47CL3, 40 μM compound 4 h, 50 ng/ml TRAIL + cycloheximide. The protocol:
as §1, §2

For data set [6], the system named is caspase 8. Put plainly: Caspase 8 level in SiHa cells by immunoblot. To be noted: 24 h. Here is the method: Figure 6 Treatment with myricetin and spinacine (5) increases cellular levels of caspase 8 and p53. (a) SiHa cells (1 × 10^6 per well) were seeded into a six-well plate and allowed to incubate overnight. The indicated concentrations of myricetin and spinacine were added, and then cells were incubated for 24 h. Cells were then washed in 1 × PBS and then harvested, and the resulting level of caspase 8 was measured by immunoblot. (b) SiHa and C33A cells (1 × 10^6 per well) were seeded into a six-well plate and allowed to incubate overnight. In all, 200 μM of myricetin and 100 μM spinacine were added together with 4 μg/ml mitomycin C and incubated for 24 h. The resulting level of p53 was measured by enzyme-linked immunosorbent assay, and the level of p53 found in untreated cells was set at 100%. Experiments were performed in triplicate, and error bars indicate the S.D.
Cells (1 × 10^6) were collected and washed with PBS. All liquid was removed by centrifugation at 3000 r.p.m. for 5 min at 4 °C. […] Signals were measured using the Odyssey Infrared Imaging system (LI-COR Biosciences) and expressed in relative light units.

Data set [7] has as its system SiHa cells. Kind of data set: Sensitization of SiHa cells to cisplatin (MTT). To be noted: 100 μM myricetin or 50 μM spinacine 4 h prior to cisplatin, versus negative control. The protocol: as §3, §4

As for `O=c1c(O)c(-c2cc(O)c(O)c(O)c2)oc2cc(O)cc(O)c12` [Myricetin, myricetin, reference compound], the “enhancement of TRAIL-induced cell death” value in data set [1] is 40%; in data set [5] it was 70%. Further, the “sensitivity of SiHa cells to doxorubicin” value in data set [2] is on record as “increased the sensitivity”. Further, in data set [3], the “toxicity to SiHa cells in the absence of TRAIL” value is on record as “low toxicity”. Besides, in data set [4], the “response to TRAIL in presence and absence of compound” value is reported as “resistant”. The “caspase 8 level” value in data set [6] (myricetin at 100 and 200 μM) is given as “increase”. Further, the “sensitivity of SiHa cells to cisplatin” value in data set [7] is listed as “increased the sensitivity”.
With `O=C(O)C1Cc2[nH]cnc2CN1` (centres unmarked) [Spinacine (5), 4,5,6,7-tetrahydro-1H-imidazo[4,5–c]pyridine-6-carboxylic acid], the entries for the “enhancement of TRAIL-induced cell death” value in data set [1] and in data set [5] were “up to 50%” and about 60%, respectively. Besides, the “sensitivity of SiHa cells to doxorubicin” value in data set [2] was “increased the sensitivity”. In addition, the “toxicity to SiHa cells in the absence of TRAIL” value in data set [3] is reported as “low toxicity”. The “response to TRAIL in presence and absence of compound” value in data set [4] is “resistant”. Further, in data set [6] (spinacine at 50 to 200 μM), the “caspase 8 level” value is reported as “increase”. The “sensitivity of SiHa cells to cisplatin” value in data set [7] is listed as “increased the sensitivity”.
